Read-outs that look alike come from different tables or passages of the source.
Columns and labels:
PilF159-302 Q190E+Q218E = assay: ITC binding to PilF159-302 Q190E+Q218E; parameters: species or system Thermus thermophilus; conditions: 20 °C, double mutant
Procedure: (§1) To assess the ligand-binding capabilities of the various PilF constructs, triplicates of ITC measurements were recorded for each construct. The measurements were carried out using a MicroCal ITC200 (Malvern Panalytical). All ITC experiments were conducted at 20 °C with 50 mM Tris-HCl pH 7.5, 200 mM sodium chloride, 1 mM β-mercaptoethanol as the sample buffer. All protein samples were extensively dialyzed against the sample buffer and the buffer used for dialysis was used to dilute protein and c-di-GMP samples in preparation for the ITC measurements. Each measurement was conducted using the following protocol. In total, 39.8 μl c-di-GMP were titrated to 270 μl protein in 20 separate injections in 180 s intervals with a stirring speed of 750 rpm. After an initial delay of 120 s, the first injection of 0.2 μl c-di-GMP with a duration of 0.4 s was followed by 19 injections of 2 μl with a duration of 4 s. During the measurement, the feedback mode was set to high and the reference power to 11 μcal s^−1. To optimize precision of the measurements, protein and c-di-GMP concentrations were adjusted to the binding capabilities of the respective constructs and ranged from 5 to 200 μM for protein and 50 to 2000 μM for c-di-GMP. All thermograms were processed using Origin 7.0 (OriginLab) using a one-site– or two-site–binding model dependent on the number of expected binding events.

[1] = molecular target: degenerate EAL-domain of FimX; parameters: method as in PMID 19679088; conditions: cited from earlier work
PilZ domain of PlzD = molecular target: PilZ domain of PlzD; parameters: method as in PMID 18034161; conditions: cited from earlier work
PilB = molecular target: PilB; parameters: method as in PMID 27578558, PMID 31868878; conditions: cited from earlier work
PilF159-302 Q218E = molecular target: T1, PilF159-302 Q218E (Thermus thermophilus, UniProt Q5SLC9, Q218E); assay: ITC binding to PilF159-302 Q218E; conditions: 20 °C
T1 sequence (Q5SLC9 159-302 Q218E): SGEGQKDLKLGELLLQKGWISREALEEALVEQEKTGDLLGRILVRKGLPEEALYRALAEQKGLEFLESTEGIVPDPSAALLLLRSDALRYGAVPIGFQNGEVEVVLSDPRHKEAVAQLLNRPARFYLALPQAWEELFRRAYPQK
Procedure: as §1

[2] = molecular target: T2, PilF159-302 (GSPII-B domain) (Thermus thermophilus, UniProt Q5SLC9); assay: ITC binding to PilF159-302; conditions: for N / ΔH / ΔS / Kd: ITC
T2 sequence (Q5SLC9 159-302): T1 sequence (Q5SLC9 159-302 Q218E)
Procedure: as §1, with “All ITC experiments were conducted at 20 °C with 50 mM Tris-HCl pH 7.5, 200 mM sodium chloride, 1 mM β-mercaptoethanol as the sample buffer.” left out

[3] = molecular target: T3, PilF1-482 (GSPII-A, -B, -C; lacks ATPase domain) (Thermus thermophilus, UniProt Q5SLC9); assay: ITC binding to PilF1-482; conditions: 20 °C; for Kd: pH 7.5, two-site model
T3 sequence (Q5SLC9 1-482): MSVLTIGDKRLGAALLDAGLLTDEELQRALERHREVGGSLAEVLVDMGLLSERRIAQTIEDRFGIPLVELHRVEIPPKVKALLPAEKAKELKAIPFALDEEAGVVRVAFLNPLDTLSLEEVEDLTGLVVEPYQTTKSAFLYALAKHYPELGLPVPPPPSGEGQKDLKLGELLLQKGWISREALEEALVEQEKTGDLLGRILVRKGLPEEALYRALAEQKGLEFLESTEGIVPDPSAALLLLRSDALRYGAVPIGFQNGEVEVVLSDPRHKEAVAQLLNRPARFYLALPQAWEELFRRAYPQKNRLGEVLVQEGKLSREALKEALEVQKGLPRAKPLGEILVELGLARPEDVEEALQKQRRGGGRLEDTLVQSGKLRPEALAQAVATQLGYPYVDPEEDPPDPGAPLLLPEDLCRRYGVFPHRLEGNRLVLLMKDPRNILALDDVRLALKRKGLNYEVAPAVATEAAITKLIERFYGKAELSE
Procedure: as §1

[4] = molecular target: T4, PilF159-221 (lacking the C-terminal subdomain) (Thermus thermophilus, UniProt Q5SLC9); assay: ITC binding to PilF159-221
T4 sequence (Q5SLC9 159-221): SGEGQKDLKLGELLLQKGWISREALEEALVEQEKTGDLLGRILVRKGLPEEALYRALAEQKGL
Procedure: as §1

Nc1nc2c(ncn2[C@@H]2O[C@@H]3COP(=O)(O)O[C@H]4[C@@H](O)[C@H](n5cnc6c(=O)[nH]c(N)nc65)O[C@@H]4COP(=O)(O)O[C@H]3[C@H]2O)c(=O)[nH]1 [c-di-GMP, cyclic dimeric guanosine monophosphate]
c-di-GMP binding (PilF159-302 Q190E+Q218E): abrogated c-di-GMP binding
Kd [1]: 100 to 200 nM
Kd (PilZ domain of PlzD): 100 to 300 nM
Kd (PilB): 53 nM
N (PilF159-302 Q218E): 1.26 ± 0.06
ΔH (PilF159-302 Q218E): -5.312 ± 0.34 kcal/mol
ΔS (PilF159-302 Q218E): 10.9 ± 1.0 cal/mol/deg
Kd (PilF159-302 Q218E; pH 7.5): 460 ± 28 nM
fold higher affinity than MshEN ([2]; GSPII-B (KD 6 nM) vs MshEN (KD 500 nM)): 83 fold
N ([2]; 20 °C): 0.66 ± 0.02
ΔH ([2]; 20 °C): -10.795 ± 1.145 kcal/mol
ΔS ([2]; 20 °C): -0.8 ± 4.0 cal/mol/deg
N ([2]; 45 °C): 0.88 ± 0.11
ΔH ([2]; 45 °C): -13.327 ± 1.389 kcal/mol
ΔS ([2]; 45 °C): -6.6 ± 4.2 cal/mol/deg
Kd ([2]; 20 °C, pH 7.5): 6 nM
Kd ([2]; 45 °C): 20 nM
increase in the free enthalpy of binding compared to MshEN ([2]; at 20 °C): ~2.7 kcal/mol
N, site 1 ([3]; Table S1 site 1): 0.98 ± 0.04
ΔH, site 1 ([3]; Table S1 site 1): -12.793 ± 0.095 kcal/mol
ΔS, site 1 ([3]; Table S1 site 1): -14.6 ± 0.2 cal/mol/deg
N, site 2 ([3]; Table S1 site 2): 0.85 ± 0.03
ΔH, site 2 ([3]; Table S1 site 2): -17.536 ± 0.128 kcal/mol
ΔS, site 2 ([3]; Table S1 site 2): -24.3 ± 0.3 cal/mol/deg
Kd ([3]; read-out: KD, high-affinity site (KD1 in text; site 2 in Table S1)): 17 ± 1 nM
Kd ([3]; read-out: KD, low-affinity site (KD2 in text; site 1 in Table S1)): 461 ± 36 nM
N ([4]; ITC, 20 °C): 1.17 ± 0.02
ΔH ([4]; ITC, 20 °C): -11.453 ± 0.189 kcal/mol
ΔS ([4]; ITC, 20 °C): -5.8 ± 0.6 cal/mol/deg
Kd ([4]; ITC, 20 °C, pH 7.5): 54 ± 3 nM
fold higher KD than PilF159-302 ([4]; PilF159-302 6 nM): 9 fold
